In paper PMC8206213, “An L-2-hydroxyglutarate biosensor based on specific transcriptional regulator LhgR” (Nature Communications, 2021):
Values joined by “and” are separate entries in the source; they are usually repeats but may differ in a detail not shown here. Equal entries are not always repeated. “Also recorded” adds a separate entry of the source.

Columns and labels:
[1] = Dose-response of LHGFR expressed in digitonin-permeabilized HEK293FT cells for L-2-HG; format: cell-based, human (HEK293FT cells)
Procedure: To characterize the sensitivity and specificity of LHGFR expressed in HEK293FT cells, cells were trypsinized 48 h following transfection and suspended in 1× Hank’s balanced salt solution supplemented with 20 mM HEPES. […] Digitonin at a concentration of 10 μM was used to induce cell permeabilization and deplete intracellular L-2-HG for in vivo response curves construction. Then, the fluorescence intensities were determined by a SpectraMax i3 fluorescence plate reader (Molecular Devices, USA) with excitation at 430 nm and emission at 485 nm (mTFP) and 528 nm (Venus). Basal L-2-HG concentration in HEK293FT cells under physiological conditions was determined by substituting the emission ratios of non-permeabilized HEK293FT cells into the calibrated in vivo response curves.

[2] = test system: LhgR; assay: EMSA, effect of compounds on LhgR binding to the lhgR promoter region F2; set-up: species or system Pseudomonas putida W619; conditions: 30 mM compound, 10 nM F2, 70 nM LhgR
Procedure: Electrophoretic mobility shift assays (EMSAs) were carried out using the DNA fragment (F1 or F2) and purified LhgR. The DNA fragments were first amplified by primer pairs F1-F/F1-R and F2-F/F2-R, respectively. Then, either fragment at a concentration of 10 nM DNA was incubated with LhgR (0–160 nM) in 20 μL EMSA binding buffer (10 mM Tris-HCl [pH 7.4], 50 mM KCl, 0.5 mM EDTA, 10% [vol/vol] glycerol, and 1 mM dithiothreitol [DTT]). The binding reactions were carried out at 30 °C for 30 min. Electrophoresis was performed on 6% native polyacrylamide gels at 4 °C and 170 V (constant voltage) for about 45 min, followed by staining with SYBR green I (TaKaRa, China) and photographing. Analysis of the interaction between lhgO promoter region (F1) and LHGFR was performed using the same procedure.
To characterize the effector of LhgR, purified LhgR was first incubated with L-lysine, 5-aminovalerate, glutarate, L-2-HG, D-2-HG, 2-KG, or succinate at 30 °C for 15 min, followed by incubation with the added DNA fragments at 30 °C for 30 min. The mixtures were subsequently subjected to electrophoresis.

[3] = test system: LhgR; assay: EMSA, effect of compounds on LhgR binding to the lhgO promoter region F1; set-up: species or system Pseudomonas putida W619; conditions: 50 mM compound, 10 nM F1, 60 nM LhgR
Outline: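 Purified LhgR was preincubated 15 min at 30 °C with candidate effectors (L-lysine, 5-aminovalerate, glutarate, L-2-HG, D-2-HG, 2-KG, succinate), then 30 min at 30 °C with 10 nM F1 or F2 DNA. Buffer: 10 mM Tris-HCl pH 7.4, 50 mM KCl, 10% glycerol, 1 mM DTT. Shift seen on 6% native PAGE with SYBR green I.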

[4] = test system: LHGFR0N3C expressed in E. coli BL21(DE3); assay: Specificity of LHGFR0N3C expressed in E. coli BL21(DE3), 1 mM compounds; format: cell-based; conditions: for Emission ratio: 1 mM compound, Fig. 5c
Procedure: To characterize the sensitivity and specificity of LHGFR expressed in E. coli BL21(DE3), 90 μL cell suspensions following 8 h carbon starvation were mixed with 10 μL increasing concentrations of L-2-HG or other compounds, and then added into a black 96-well plate (total 100 μL/per well), the fluorescence intensities were determined using an EnSight microplate reader (PerkinElmer, USA) and the following instrument settings: excitation at 430 nm, emission at 485 nm (mTFP) and 528 nm (Venus), time intervals of 5 min, the temperature at 37 °C, and shake at 180 rpm.

Compound: O=C(O)CC[C@H](O)C(=O)O [L-2-HG, L-2-Hydroxyglutarate]
- Normalized emission ratio ([1]; Fig. 6c, L-2-HG concentration 0.01): 0.9714 and 1.018 and 1.011
- Normalized emission ratio ([1]; Fig. 6c, L-2-HG concentration 0.1): 1.002 (2×) and 0.9784
- Normalized emission ratio ([1]; Fig. 6c, L-2-HG concentration 1): 1.006 and 0.9618 and 1.048
- Normalized emission ratio ([1]; Fig. 6c, L-2-HG concentration 10): 1.045 and 1.118 and 1.137
- Normalized emission ratio ([1]; Fig. 6c, L-2-HG concentration 20): 1.133 and 1.12 and 1.163
- Normalized emission ratio ([1]; Fig. 6c, L-2-HG concentration 100): 1.245 and 1.312 and 1.322
- Normalized emission ratio ([1]; Fig. 6c, L-2-HG concentration 200): 1.303 and 1.3035 and 1.367
- Normalized emission ratio ([1]; Fig. 6c, L-2-HG concentration 1000): 1.414 and 1.364 and 1.401
- Normalized emission ratio ([1]; Fig. 6c, L-2-HG concentration 2000): 1.387 and 1.439 and 1.425
- Normalized emission ratio ([1]; Fig. 6c, L-2-HG concentration 10000): 1.443 and 1.404 and 1.415
- Normalized emission ratio ([1]; L-2-HG concentration 0.01, Supplementary Fig. 17c): 0.9984 and 1.014 and 0.9873
- Normalized emission ratio ([1]; L-2-HG concentration 0.01, Supplementary Fig. 18c): 0.9865 and 0.9714 and 1.042
- Normalized emission ratio ([1]; L-2-HG concentration 0.1, Supplementary Fig. 17c): 1 and 1.004 and 1.02
- Normalized emission ratio ([1]; L-2-HG concentration 0.1, Supplementary Fig. 18c): 0.9909 and 1.037 and 0.9822
- Normalized emission ratio ([1]; L-2-HG concentration 1, Supplementary Fig. 17c): 1.007 and 1.056 and 1.0486
- Normalized emission ratio ([1]; L-2-HG concentration 1, Supplementary Fig. 18c): 0.9662 and 0.9722 and 0.9935
- Normalized emission ratio ([1]; L-2-HG concentration 10, Supplementary Fig. 17c): 1.22 and 1.297 and 1.235
- Normalized emission ratio ([1]; L-2-HG concentration 10, Supplementary Fig. 18c): 0.9752 and 1.056 and 0.9703
- Normalized emission ratio ([1]; L-2-HG concentration 20, Supplementary Fig. 17c): 1.319 and 1.273 and 1.318
- Normalized emission ratio ([1]; L-2-HG concentration 20, Supplementary Fig. 18c): 1.003 and 1.067 and 0.9797
- Normalized emission ratio ([1]; L-2-HG concentration 100, Supplementary Fig. 17c): 1.392 and 1.387 and 1.431
- Normalized emission ratio ([1]; L-2-HG concentration 100, Supplementary Fig. 18c): 1.048 and 0.9825 and 0.9723
- Normalized emission ratio ([1]; L-2-HG concentration 200, Supplementary Fig. 17c): 1.3826 and 1.447 and 1.484
- Normalized emission ratio ([1]; L-2-HG concentration 200, Supplementary Fig. 18c): 0.9116 and 1.038 and 1.008
- Normalized emission ratio ([1]; L-2-HG concentration 1000, Supplementary Fig. 17c): 1.434 and 1.459 and 1.447
- Normalized emission ratio ([1]; L-2-HG concentration 1000, Supplementary Fig. 18c): 0.9678 and 0.9844 and 0.9663
- Normalized emission ratio ([1]; L-2-HG concentration 2000, Supplementary Fig. 17c): 1.455 and 1.475 and 1.401
- Normalized emission ratio ([1]; L-2-HG concentration 2000, Supplementary Fig. 18c): 0.9838 and 0.9876 and 0.9675
- Normalized emission ratio ([1]; L-2-HG concentration 10000, Supplementary Fig. 17c): 1.475 and 1.44 and 1.4468
- Normalized emission ratio ([1]; L-2-HG concentration 10000, Supplementary Fig. 18c): 0.9794 and 1.103 and 1.106
- Effect on LhgR binding to the lhgR promoter region F2 [2]: prevent LhgR binding to the lhgR promoter
- Effect on LhgR binding to the lhgO promoter region F1 [3]: prevents LhgR binding to the lhgO promoter region; also recorded: release of LhgR from fragments F1 was observed only in the presence of L-2-HG
- Emission ratio ([4]; 0 min): 1.025 and 0.9964 and 0.9897
- Emission ratio ([4]; 5 min): 1.0102 and 1.019 and 1.007
- Emission ratio ([4]; 10 min): 1.0776 and 1.069 and 1.057
- Emission ratio ([4]; 15 min): 1.152 and 1.136 and 1.118
- Emission ratio ([4]; 20 min): 1.219 and 1.203 and 1.181
- Emission ratio ([4]; 25 min): 1.256 and 1.2441 and 1.233
- Emission ratio ([4]; 30 min): 1.305 and 1.29 and 1.273
- Emission ratio ([4]; 35 min): 1.298 and 1.29 and 1.292
- Emission ratio ([4]; 40 min): 1.314 and 1.317 and 1.304
- Emission ratio ([4]; 45 min): 1.326 and 1.316 and 1.3122
- Emission ratio ([4]; 50 min): 1.332 and 1.331 and 1.305
- Emission ratio ([4]; 55 min): 1.343 and 1.33 and 1.32
- Emission ratio ([4]; 60 min): 1.3375 and 1.331 and 1.312
- Emission ratio ([4]; 65 min): 1.326 and 1.339 and 1.336
- Emission ratio ([4]; 70 min): 1.339 and 1.343 and 1.334
- Emission ratio ([4]; 75 min): 1.32 and 1.336 and 1.325
- Emission ratio ([4]; 80 min): 1.332 and 1.339 and 1.343
- Emission ratio ([4]; 85 min): 1.326 and 1.34 and 1.332
- Emission ratio ([4]; 90 min): 1.323 and 1.316 and 1.34
- Increase of the emission ratio in E. coli BL21(DE3) ([4]; 1 mM exogenous compound): could significantly increase the emission ratio
